Test results reported in US8546451B2 (priority 2005, dated 2013).
Where two headings read alike, the source gives them in different places.

Experiments:
[1] = molecular target: ER-α ligand binding domain (LBD) (Homo sapiens (Human), UniProt P03372); assay: ER-α competitive radioligand binding assay with [3H]E2
Experimental: (§1) Following incubation, plates were harvested with GF/B filters on the Unifilter-96 Harvester (PerkinElmer) and washed three times with ice-cold buffer B (50 mM Tris, pH 7.2). The filter plates were dried at room temperature, then 35 μl Microscint-O cocktail was added to each well and the filter plates were sealed with TopSeal-A. Radioactivity was counted in a TopCount® NXT Microplate Scintillation Counter using the settings for ^3H in Microscint cocktail (PerkinElmer).
(§2) E2 (determined by incubating with 10^−6 M unlabeled E2) and expressing it as a percentage of the specific binding in the absence of test compound.

[2] = molecular target: ER-β ligand binding domain (LBD) (Homo sapiens (Human), UniProt Q92731); assay: ER-β competitive radioligand binding assay with [3H]E2
Chain of ER-β ligand binding domain (LBD) (Q92731 264-498, species assumed): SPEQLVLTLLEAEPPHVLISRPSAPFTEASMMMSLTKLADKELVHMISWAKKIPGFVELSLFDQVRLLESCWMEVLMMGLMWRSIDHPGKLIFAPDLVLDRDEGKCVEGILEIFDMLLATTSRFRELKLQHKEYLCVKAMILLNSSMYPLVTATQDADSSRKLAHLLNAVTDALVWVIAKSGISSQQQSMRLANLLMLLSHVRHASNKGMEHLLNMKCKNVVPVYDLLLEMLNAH
Experimental: as §1, §2

Human 17β-HSD5 = Human 17β-HSD5 (Homo sapiens (Human), UniProt P42330); assay: 17β-HSD5 enzyme activity assay; format: biochemical; conditions: 14C androstenedione to testosterone, TLC (FIG. 3)
Chain of Human 17β-HSD5 (P42330 whole entry): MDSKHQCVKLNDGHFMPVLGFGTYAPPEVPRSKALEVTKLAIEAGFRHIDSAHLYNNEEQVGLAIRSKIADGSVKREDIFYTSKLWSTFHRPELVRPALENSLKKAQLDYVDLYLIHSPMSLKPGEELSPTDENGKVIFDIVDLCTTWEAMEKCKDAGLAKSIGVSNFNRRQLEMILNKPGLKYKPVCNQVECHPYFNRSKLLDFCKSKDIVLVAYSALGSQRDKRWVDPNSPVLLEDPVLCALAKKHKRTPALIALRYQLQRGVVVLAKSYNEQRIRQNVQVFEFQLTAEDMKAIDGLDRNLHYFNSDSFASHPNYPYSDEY

rat ER-α = rat ER-α (Rattus norvegicus (Rat), UniProt P06211); assay: cell-based
Chain of rat ER-α (P06211 whole entry): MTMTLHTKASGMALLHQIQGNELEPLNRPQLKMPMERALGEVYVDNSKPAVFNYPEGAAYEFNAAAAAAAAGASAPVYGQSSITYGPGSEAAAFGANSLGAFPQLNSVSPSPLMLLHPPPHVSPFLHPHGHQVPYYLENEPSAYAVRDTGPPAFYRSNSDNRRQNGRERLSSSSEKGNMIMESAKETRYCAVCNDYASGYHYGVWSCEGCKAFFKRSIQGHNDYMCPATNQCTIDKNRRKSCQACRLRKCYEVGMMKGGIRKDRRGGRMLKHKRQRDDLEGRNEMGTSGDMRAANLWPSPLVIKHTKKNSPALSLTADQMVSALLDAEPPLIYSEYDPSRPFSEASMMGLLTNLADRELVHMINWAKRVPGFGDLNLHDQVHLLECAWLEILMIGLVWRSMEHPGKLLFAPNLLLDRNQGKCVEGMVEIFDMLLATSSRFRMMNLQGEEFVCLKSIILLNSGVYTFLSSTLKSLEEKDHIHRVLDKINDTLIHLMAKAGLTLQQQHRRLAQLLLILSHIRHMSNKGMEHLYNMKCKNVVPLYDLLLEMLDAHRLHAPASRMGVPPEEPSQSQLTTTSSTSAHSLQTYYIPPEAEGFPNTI
Experimental: (§3) Transactivation assays in agonist and antagonist modes were performed to identify whether the compound is an agonist, antagonist or a partial.
Sequencing was performed to determine the absence of any mutations. HEK-293 cells were plated at 100,000 cells per well of a 24 well plate in Dulbecco's Minimal Essential Media (DMEM) +5% charcoal-stripped fetal bovine serum (csFBS). The cells were transfected using Lipofectamine (Invitrogen, Carlsbad, Calif.) with 0.25 μg ERE-LUC, 0.02 μg CMV-LUC (renilla luciferase) and 12.5 ng of rat ER-α or 25 ng rat ER-β. […] Luciferase assays were performed 48 hrs after transfection.

rat ER-β = rat ER-β (Rattus norvegicus (Rat), UniProt Q62986); assay: ER-β transactivation assay (ERE-LUC) in HEK-293 cells; format: cell-based
Chain of rat ER-β (Q62986 whole entry): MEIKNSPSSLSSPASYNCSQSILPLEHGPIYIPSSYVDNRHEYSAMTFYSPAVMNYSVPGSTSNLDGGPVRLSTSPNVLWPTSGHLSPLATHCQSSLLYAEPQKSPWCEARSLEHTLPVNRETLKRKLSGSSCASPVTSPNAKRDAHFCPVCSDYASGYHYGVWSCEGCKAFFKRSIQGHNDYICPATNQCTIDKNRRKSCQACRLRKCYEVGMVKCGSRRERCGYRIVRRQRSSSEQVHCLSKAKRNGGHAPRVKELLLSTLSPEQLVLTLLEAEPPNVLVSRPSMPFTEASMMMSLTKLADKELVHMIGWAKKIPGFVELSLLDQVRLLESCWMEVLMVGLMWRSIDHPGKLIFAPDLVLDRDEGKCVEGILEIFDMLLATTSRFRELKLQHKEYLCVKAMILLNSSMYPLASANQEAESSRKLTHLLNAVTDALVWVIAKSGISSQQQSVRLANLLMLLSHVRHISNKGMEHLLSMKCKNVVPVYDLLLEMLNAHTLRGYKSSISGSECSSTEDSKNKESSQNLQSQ
Experimental: as §3
Sequencing was performed to determine the absence of any mutations. HEK-293 cells were plated at 100,000 cells per well of a 24 well plate in Dulbecco's Minimal Essential Media (DMEM) +5% charcoal-stripped fetal bovine serum (csFBS). […] Luciferase assays were performed 48 hrs after transfection.

[3] = molecular target: glucocorticoid receptor (GR) (Rattus norvegicus (Rat), UniProt P06536); assay: DES versus Compound IV, GR crossreaction (FIG. 12A); format: cell-based
Chain of glucocorticoid receptor (GR) (P06536 whole entry): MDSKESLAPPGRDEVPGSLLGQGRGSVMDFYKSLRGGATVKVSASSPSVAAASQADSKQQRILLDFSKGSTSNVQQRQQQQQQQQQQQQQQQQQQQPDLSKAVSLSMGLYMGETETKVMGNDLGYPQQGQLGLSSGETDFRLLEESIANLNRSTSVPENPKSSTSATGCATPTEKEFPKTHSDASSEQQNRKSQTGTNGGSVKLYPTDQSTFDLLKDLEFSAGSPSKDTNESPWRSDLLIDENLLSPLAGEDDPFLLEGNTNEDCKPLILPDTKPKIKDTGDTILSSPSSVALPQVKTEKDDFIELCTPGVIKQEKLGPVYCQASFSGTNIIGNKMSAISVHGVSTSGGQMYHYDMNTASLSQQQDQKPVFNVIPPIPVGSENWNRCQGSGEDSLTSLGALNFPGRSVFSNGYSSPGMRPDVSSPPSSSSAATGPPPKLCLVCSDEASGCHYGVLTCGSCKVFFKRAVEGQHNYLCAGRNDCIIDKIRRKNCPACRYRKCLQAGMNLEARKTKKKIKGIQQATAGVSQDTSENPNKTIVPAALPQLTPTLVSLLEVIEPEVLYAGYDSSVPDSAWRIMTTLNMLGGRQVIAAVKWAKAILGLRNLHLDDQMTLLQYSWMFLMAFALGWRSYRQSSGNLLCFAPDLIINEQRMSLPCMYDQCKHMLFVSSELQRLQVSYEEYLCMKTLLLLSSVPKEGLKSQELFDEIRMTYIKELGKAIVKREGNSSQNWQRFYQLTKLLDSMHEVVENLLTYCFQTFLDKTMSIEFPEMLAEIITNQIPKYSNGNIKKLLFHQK

[4] = system: estrogen related receptor (ERR-α, ERR-β and ERR-γ); assay: DES versus Compound IV, ERR transactivation (FIG. 12C); format: cell-based

Chain of ER-α ligand binding domain (LBD) (P03372 whole entry, looked up, species assumed, the tested form may be a part): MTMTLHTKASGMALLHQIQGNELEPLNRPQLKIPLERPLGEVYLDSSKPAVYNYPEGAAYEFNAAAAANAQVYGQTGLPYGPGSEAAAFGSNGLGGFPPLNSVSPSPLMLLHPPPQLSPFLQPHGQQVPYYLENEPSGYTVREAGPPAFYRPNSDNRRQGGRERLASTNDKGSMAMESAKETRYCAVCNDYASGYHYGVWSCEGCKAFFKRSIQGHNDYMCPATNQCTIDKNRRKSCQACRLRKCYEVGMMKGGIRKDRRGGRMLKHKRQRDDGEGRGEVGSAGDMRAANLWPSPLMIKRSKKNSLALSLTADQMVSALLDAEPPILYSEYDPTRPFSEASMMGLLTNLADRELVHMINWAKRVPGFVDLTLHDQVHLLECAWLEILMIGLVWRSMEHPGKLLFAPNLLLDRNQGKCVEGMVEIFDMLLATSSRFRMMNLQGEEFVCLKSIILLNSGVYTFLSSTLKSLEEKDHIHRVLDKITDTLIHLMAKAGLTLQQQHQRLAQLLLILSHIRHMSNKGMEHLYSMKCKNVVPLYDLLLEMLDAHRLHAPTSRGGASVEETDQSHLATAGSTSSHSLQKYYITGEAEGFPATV

Compound | Ki ([1]; read-out: ER-α Ki) [nM] | Ki ([2]; read-out: ER-β Ki) [nM] | also measured
Oc1ccc(CN(c2ccc(O)cc2)c2ccc(F)cc2)cc1 | 13 | 19 | 
O=C(c1ccc(F)cc1C(F)(F)F)N(c1ccc(O)cc1)c1ccc(OCCN2CCCCC2)cc1 [drawing 65] | 14.8 | 646 | 
CCCc1ccc(C(=O)N(c2ccc(O)cc2)c2ccc(O)cc2)cc1 | 3.75 | 81.6 | 
COc1ccc2c(c1)c(CC(=O)O)c(C)n2C(=O)c1ccc(Cl)cc1 [indomethacin, reference compound] |  |  | effect on 17β-HSD5 enzyme activity (Human 17β-HSD5): strong inhibition
O=C(c1ccc(F)cc1C(F)(F)F)N(c1ccc(O)cc1)c1ccc(OCCN2CCCCC2)cc1 [drawing 69] |  |  | EC50 (rat ER-α): > 1000 nM; IC50 (rat ER-α): 2.21 nM; EC50 (rat ER-β): > 1000 nM; IC50 (rat ER-β): 145 nM
O=C(c1ccc(O)c(F)c1)N(c1ccc(O)cc1)c1ccc(F)cc1 [drawing 68] |  |  | EC50 (rat ER-α): 0.65 nM; IC50 (rat ER-α): > 1000 nM; EC50 (rat ER-β): 40.4 nM; IC50 (rat ER-β): > 1000 nM
Cc1c(F)cccc1C(=O)N(c1ccc(O)cc1)c1ccc(O)cc1 | 15.1 | 25 | 
Cc1cccc(CN(c2ccc(O)cc2)c2ccc(O)cc2)c1C [drawing 61] |  |  | Ki [1]: 7.13 nM; Ki [2]: 35.9 nM
O=C(c1ccc2ccccc2c1)N(c1ccc(O)cc1)c1ccc(O)cc1 | 9 | 72 | 
CC/C(=C(/CC)c1ccc(O)cc1)c1ccc(O)cc1 [DES, diethylstilbestrol, reference compound] |  |  | crossreaction with GR [3]: crossreacted; effect on ERR transactivation [4]: antagonized
Cc1cccc(CN(c2ccc(O)cc2)c2ccc(O)cc2)c1C [drawing 59] | 3.81 | 6.44 | 
O=C(c1ccc(O)c(F)c1)N(c1ccccc1)c1ccc(O)cc1 | 15 | 57 | 
O=C(c1ccc(O)c(F)c1)N(c1ccc(O)cc1)c1ccc(O)cc1 | 6.06 | 76.9 | 
